Experimental data from US20090281110A1, “Method of Treatment” (priority 2006, published 2009).

Experiments:
[1] = biological target: T1, recombinant human IL-8 type α and β receptors (Homo sapiens, UniProt P25025); assay: Receptor Binding Assay ([125I] IL-8 / GRO-α displacement, CHO membranes); conditions: receptor subtype (IL-8Rα or IL-8Rβ) not given
T1 sequence (P25025 1-360): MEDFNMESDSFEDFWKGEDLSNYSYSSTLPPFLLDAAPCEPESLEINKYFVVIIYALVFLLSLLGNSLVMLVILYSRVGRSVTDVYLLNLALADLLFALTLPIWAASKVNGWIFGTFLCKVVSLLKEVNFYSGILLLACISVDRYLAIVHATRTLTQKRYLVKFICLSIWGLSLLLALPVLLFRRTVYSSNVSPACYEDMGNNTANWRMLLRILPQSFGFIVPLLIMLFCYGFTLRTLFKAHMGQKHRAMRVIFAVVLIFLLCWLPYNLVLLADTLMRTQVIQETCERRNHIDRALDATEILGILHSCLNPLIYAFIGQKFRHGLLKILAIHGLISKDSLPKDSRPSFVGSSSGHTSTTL

[2] = tested on: rat estrogen opposition model; assay: Rat Model of Estrogen Opposition: Uterotrophic Model Assay; type: in vivo; conditions: 30 mg/kg/day
Experimental: A rat estrogen opposition model (Lundeen, S. G. et al., (2001) Rat Uterine Complement C3 Expression as a Model for Progesterone Receptor Modulators: Characterization of the New Progestin Trimegestone. J. Steroid Biochem. & Mol. biol. 78, 137-143, incorporated herein to the extent required to perform the present assay) was used to determine the efficacy of Example 2f at 30 mg/kg/day. This was a 48 hour rodent model involving a pre-treatment of compound followed by two days of combined estrogen (0.08 mg/kg) and compound treatment. At termination, uteri were removed from the rats weighed and sectioned for downstream biochemical analysis. Estrogen in this model was pro-inflammatory, inducing edema and infiltration of neutrophils into the endometrium causing a 4 to 5 fold increase in uterine weight. A significant effect of compound treatment on uterine weight was considered approximately a 25% decrease.

| IC50 [1] | Compound | gene expression level of MMP-9 reduced compared to vehicle control and estrogen treated rats ([2]; rat uterus) [%] | gene expression of C3 reduced compared to estrogen only treatment ([2]; rat uterus) [%] | gene expression of cfos reduced compared to estrogen only treatment ([2]; rat uterus) [%] | reduced estrogen-induced uterine wet weight ([2]; rat, 48 hour model, estrogen 0.08 mg/kg) [%+/−5%] |
| --- | --- | --- | --- | --- | --- |
| about 13 nM | Cl.O=C(Nc1ccc(Cl)c(S(=O)(=O)N2CCNCC2)c1O)Nc1cccc(F)c1Cl [Example 1, N-[4-chloro-2-hydroxy-3-(piperazine-1-sulfonyl)phenyl]-N′-(2-chloro-3-fluorophenyl)urea hydrochloride] |  |  |  |  |
|  | CN1CCN(S(=O)(=O)c2c(Cl)ccc(NC(=O)Nc3cccc(F)c3Cl)c2O)CC1.Cc1ccc(S(=O)(=O)O)cc1 [Example 2f, N-[4-chloro-2-hydroxy-3-(4-methyl-piperazine-1-sulfonyl)-phenyl]-N′-(2-chloro-3-fluorophenyl)-urea p-toluenesulfonate] | 50 | 84 | 50 | 66 |
